Data set [1] is described as follows: Preservation of color and viscosity of the composition over time. The format is physicochemical. The note with it: used instead of ascorbic acid in the gel. On the procedure:
Gels were prepared according to the mixing procedure of Example 1, but with amounts of the ingredients to achieve molarities of those ingredients as shown below. Euxyl® PE9010 is a preservative having phenoxyethanol as the active ingredient (Schülke and Mayr, 30 Two Bridges Road Suite 225, Fairfield, N.J. 07004, USA).

The conditions of data set [2]: cited from earlier work.

The pKa is the negative logarithm of the acid dissociation constant.

Take `CCOC1=C(O)C(=O)O[C@@H]1[C@@H](O)CO` [3-O-ethyl ascorbic acid]: in data set [1], the “color and viscosity stability of composition” value is “preserves the color and viscosity of the composition over long periods of time”.

For `O=NO` [Nitrous acid], the pKa in data set [2] is on record as 3.37.

Source of the values: patent publication US20130330244A1, “COMPOSITIONS AND METHODS FOR TOPICAL NITRIC OXIDE GENERATION” (NIOXX LLC, priority 2011, published 2013).
